Entries after “also recorded” stand apart in the source; their conditions may differ. Ends that are not written are not given here.
Assays:
[1] = tested on: OVA-MMAF; assay: Peptide ELISA binding experiment (Fc fusion peptides); details: antigens coated 1 µg/mL, peptide from 2000 nM (FIG. 34)
Experimental: The constructed Fc fusion peptide molecules PP-1A-#84 to #95 were used for identification of binding specificity to OVA-MMAF and OVA, to determine molecules with better specific binding activity to MMAE. […] Table 20. Amino acid sequence listing of PP-1A-#85 (peptide) to PP-1A-#94 (peptide) and PP-1A-#85 (Fc fusion peptide)
• (1) Antigen coating: MMAF conjugated protein and negative protein were coated onto a microplate using coating buffer at a concentration of 1 µg/mL, and the plate was placed at 4°C overnight for about 16 h. (2) Blocking: The plate coated with antigen was washed once with PBST using a plate washer, and blocked by adding Casein solution at 200 µL/well at room temperature for 1 h. (3) Primary antibody incubation: The plate was washed 3 times with PBST, and peptide samples with an initial concentration of 2000 nM diluted in a 5-fold gradient using Casein solution were added. The negative control was the Fc.uIgG1 molecule. Incubation was performed at room temperature for 2 h. (4) Secondary antibody incubation: The plate was washed 3 times with PBST, and secondary antibody Goat pAb to Hu IgG(HRP) (1:10000) (Abcam, Cat. Ab97225) diluted with Casein solution was added and incubated at room temperature for 1 h. (5) Color development: The plate was washed 6 times with PBST, 100 µL of TMB color development solution was added to each well, and color was developed for 2 to 10 min protected from light. (6) Termination: 100 µL of 2 M H2SO4 was added to each well to terminate the reaction. The OD450 value was read using a microplate reader, recorded, and saved. Finally, the data were analyzed using GraphPad software.

[2] = tested on: BSA-MMAF; assay: Peptide competitive ELISA; type: binding; details: peptide 2000 nM, truncated free MMAE or null-ADC from 1000 nM (FIG. 35)
Experimental: • (1) Antigen coating: BSA-MMAF was coated onto a microplate using coating buffer at a concentration of […], and placed at 4°C overnight for about 16 h. (2) Blocking: The microplate coated with antigen was washed once with PBST using a plate washer, and blocked by adding Casein solution at 200 µL/well at room temperature for 1 h. (3) Primary antibody incubation: The plate was washed 3 times with PBST, and a premixture of peptide sample diluted with Casein solution and truncated free MMAE/null-ADC was added. The final concentration of the peptide sample was 2000 nM. […] The positive control was molecule ABC3320 with a final concentration of 1.28 nM. Incubation was performed at room temperature for 2 h. (4) Secondary antibody incubation: The plate was washed 3 times with PBST, and secondary antibody Goat pAb to Hu IgG(HRP) (1:10000) diluted with Casein solution was added and incubated at room temperature for 1 h. (5) Color development: The plate was washed 6 times with PBST, 100 µL of TMB color development solution was added to each well, and color was developed for 2 to 10 min protected from light. (6) Termination: 100 µL of 2 M H2SO4 was added to each well to terminate the reaction. The OD450 value was read using a microplate reader, recorded, and saved. Finally, the data were analyzed using GraphPad software.

[3] = tested on: OVA-DXD; assay: Dot blot screening for DXD specific binding peptides; details: OVA or OVA-DXD 20 µg/mL spotted (FIG. 40)
Experimental: Sample preparation: 50 mL of bacterial liquid induced with IPTG overnight (16°C, 16 h) was collected by centrifugation at 5000 rpm for 5 min, and the supernatant was discarded. 7 mL of PBS was added to resuspend the bacterial pellet, and it was disrupted at 200 W for 5 min. It was centrifuged at 12,000 rpm for 20 min, and the supernatant was collected for later use. Spotting: A nylon membrane (Beyotime, CAT#FFN10) was cut to an appropriate size and marked with lines. 3 µL of antigen sample (OVA or OVA-DXD, 20 µg/mL) was spotted onto the membrane using a pipette. The consistency of the spotted volume and the spacing between spots were carefully dealt with to avoid mutual interference between samples. After spotting, the membrane was allowed to dry naturally at room temperature. Blocking: The dried membrane was placed in a blocking solution (5% skim milk) and blocked on a shaker at room temperature for 1 to 2 h. The purpose of blocking was to prevent non-specific binding and reduce background signals. Washing: After incubation of the primary antibody, the membrane was thoroughly washed with washing buffer (PBST) 3 times for 5 min each time to remove unbound primary antibody. Secondary antibody incubation: The membrane was placed in a solution containing appropriately diluted secondary antibody and incubated at room temperature for 1 to 2 h. The secondary antibody was an antibody against the primary antibody, usually carrying a detectable label such as horseradish peroxidase (HRP) or alkaline phosphatase (AP). Washing: The membrane was washed again with washing buffer to remove unbound secondary antibody, 3 times for 5 min each time. Color development: An appropriate amount of ECL color development substrate solution was applied to the membrane, and the reaction was performed at room temperature protected from light. The color development was observed using a gel imager, and the membrane was photographed and recorded. Through observing the presence or absence and the color depth of the spots, the target protein in the sample can be qualitatively or semi-quantitatively analyzed.

[4] = tested on: OVA-MMAF and BSA-MMAF; assay: Peptide ELISA binding experiment (PP-1B Fc fusion peptides); details: FIG. 42
Experimental: The binding of the constructed Fc fusion peptide molecules PP-1B-#70 to #74 with OVA-MMAF and OVA was identified respectively to screen for molecules with better specific binding specificity to MMAE. After the first round of primary screening was completed, the binding specificity of #74 with OVA-MMAF and BSA-MMAF was further verified.
• (1) Antigen coating: MMAF conjugated protein and negative protein were coated onto a microplate using coating buffer at a concentration of 1 µg/mL, and the plate was placed at 4°C overnight for about 16 h. (2) Blocking: The microplate coated with antigen was washed once with PBST using a plate washer, and blocked by adding Casein solution at 200 µL/well at room temperature for 1 h. (3) Primary antibody incubation: The plate was washed 3 times with PBST, and peptide samples with an initial concentration of 2000 nM diluted in a 5-fold gradient using Casein solution were added and the plate incubated at room temperature for 2 h. (4) Secondary antibody incubation: The plate was washed 3 times with PBST, and secondary antibody Goat pAb to Hu IgG(HRP) (1:10000) (Abcam, Cat. Ab97225) diluted with Casein solution was added and the plate was incubated at room temperature for 1 h. […] The OD450 value was read using a microplate reader, recorded, and saved. Finally, the data were analyzed using GraphPad software.

[5] = tested on: BSA-MMAF; assay: Peptide competitive ELISA (PP-1B-#74); type: binding; details: FIG. 43
Experimental: Based on the peptide molecule binding activity results, molecule PP-1B-#74 was further verified for its specific binding to MMAE through competitive experiments.
• (1) Antigen coating: BSA-MMAF was coated onto a microplate using coating buffer at a concentration of 1 µg/mL, and the plate was placed at 4°C overnight for about 16 h. (2) Blocking: The microplate coated with antigen was washed once with PBST using a plate washer, and blocked by adding Casein solution at 200 µL/well at room temperature for 1 h. (3) Primary antibody incubation: The plate was washed 3 times with PBST, and a premixture of peptide sample diluted with Casein solution and truncated free MMAE/null-ADC was added. The final concentration of the peptide sample was 2000 nM. The initial concentration of truncated free MMAE and null-ADC was 1000 nM, diluted in a 10-fold gradient, and incubation was performed at room temperature for 2 h. (4) Secondary antibody incubation: The plate was washed 3 times with PBST, and secondary antibody Goat pAb to Hu IgG(HRP) (1:10000) diluted with Casein solution was added and the plate was incubated at room temperature for 1 h. […] Termination: 100 µL of 2 M H2SO4 was added to each well to terminate the reaction, and the OD450 value was read using a microplate reader, recorded, and saved. (6) Finally, the data were analyzed using GraphPad software.

[6] = tested on: NCI-H292 tumor cells; assay: Inhibitory effect of DXD-binding peptides on DXD cytotoxicity; type: cell-based; details: DXD 1 ng/mL, peptides from 100 µg/mL, 3 days (FIG. 41)
Experimental: NCI-H292 tumor cells were used to detect the inhibitory effect of DXD-binding peptides on DXD cytotoxicity.
NCI-H292 cells were digested, counted, and plated at 5E3 cells/well, with 60 µL per well, and allowed to adhere in a 37°C incubator. Peptide molecules and nonsense control antibody Null IgG were 2-fold diluted for 7 gradients starting at a concentration of 100 µg/mL The DXD concentration was fixed to 1 ng/mL. The test substances were incubated with DXD at room temperature for 2 h. The incubated samples were added into the 96-well plate at 60 µL/well and cultured in a 37°C incubator for 3 days. 100 µL of Cell Counting-Lite 2.0 Reagent was added to each well, and the plate was shaken on a shaker for 10 min. The fluorescence signal was read using a microplate reader.

[7] = biological target: Nectin-4 (UniProt Q96NY8); assay: binding assay read as OD450; method not described
Sequence of Nectin-4 (Q96NY8 32-349 limits assumed): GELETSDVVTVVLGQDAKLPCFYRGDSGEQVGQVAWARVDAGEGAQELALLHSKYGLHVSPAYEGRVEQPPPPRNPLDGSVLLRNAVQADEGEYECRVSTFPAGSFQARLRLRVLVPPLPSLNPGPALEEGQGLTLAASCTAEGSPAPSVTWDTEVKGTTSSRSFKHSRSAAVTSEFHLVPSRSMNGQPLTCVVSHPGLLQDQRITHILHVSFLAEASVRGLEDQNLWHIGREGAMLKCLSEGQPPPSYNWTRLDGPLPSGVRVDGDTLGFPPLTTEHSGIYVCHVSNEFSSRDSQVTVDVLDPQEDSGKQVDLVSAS

Row | Substance | specific binding to OVA-MMAF and OVA [1] | specific binding to DXD (dot blot) [3] | other results
1 | ACRLTGPDWLHTQRC (cysteine pairing not given here; also: Fc fusion) [PP-1A-#88] | specific binding to OVA-MMAF, but the binding activity was relatively weak | – | –
2 | ACDESHGVPHTSGMC [PP-1A-#85] | good binding activity to OVA-MMAF and did not bind to OVA | – | competitive binding of free MMAE [2]: blocked by truncated free MMAE, but not blocked by null-ADC
3 | ACHWNAKADYGSFVC (cysteine pairing not given here; also: Fc fusion) [PP-1A-#91] | specific binding to OVA-MMAF, but the binding activity was relatively weak | – | –
4 | LTVAMITTSRITTSN [PP-1A-#362] | – | capable of specifically binding to DXD | –
5 | APPTFPVSTSVVISR [PP-1A-#367] | – | capable of specifically binding to DXD | –
6 | AHNVEILPPFDYTLS [PP-1A-#358] | – | capable of specifically binding to DXD | –
7 | YYVAWRW [PP-1B-#74] | – | – | specific binding to OVA-MMAF and BSA-MMAF [4]: able to specifically bind to OVA-MMAF and BSA-MMAF; specific binding to MMAE (competitive ELISA) [5]: able to specifically bind to MMAE
8 | ACTPALRSLAC (cysteine pairing not given here; also: Fc fusion) [PP-1A-#89] | good binding activity to OVA-MMAF and did not bind to OVA | – | –
9 | ACLSPWLFFWC [PP-1A-#415] | – | capable of specifically binding to DXD | cytoprotective effect [6]: exhibited a cytoprotective effect
10 | ACSQCVLLPPPQSVC [PP-1A-#431] | – | capable of specifically binding to DXD | –
11 | ACWTLWLPLLPLGSC [PP-1A-#428] | – | capable of specifically binding to DXD | –
12 | ACVLSPHPQAC [PP-1A-#93] | good binding activity to OVA-MMAF and did not bind to OVA | – | competitive binding of free MMAE [2]: blocked by truncated free MMAE, but not blocked by null-ADC
13 | ACTGCSRTHSPRSRC (cysteine pairing not given here; also: Fc fusion) [PP-1A-#92] | specific binding to OVA-MMAF, but the binding activity was relatively weak | – | –
14 | ACLRNSPRKQC (cysteine pairing not given here; also: Fc fusion) [PP-1A-#90] | specific binding to OVA-MMAF, but the binding activity was relatively weak | – | –
15 | ACLPNSLGPSAMSSC [PP-1A-#86] | good binding activity to OVA-MMAF and did not bind to OVA | – | –
16 | hIgG1 (antibody) | – | – | Top OD450 [7]: 0 OD450
17 | ACGSLSWRNCGSYRC [PP-1A-#417] | – | capable of specifically binding to DXD | cytoprotective effect [6]: exhibited a cytoprotective effect
18 | VALTWYYPIYLFATR [PP-1A-#330] | – | capable of specifically binding to DXD | –
19 | Enfortumab vedotin (in-house) (antibody) | – | – | Top OD450 [7]: 1.23 OD450
20 | ACYPFGNPRGVRPSC [PP-1A-#426] | – | capable of specifically binding to DXD | –
21 | ILTTVNVVPNTIHVR [PP-1A-#340] | – | capable of specifically binding to DXD | cytoprotective effect [6]: exhibited a cytoprotective effect
22 | ACLACWTSRSC [PP-1A-#414] | – | capable of specifically binding to DXD | cytoprotective effect [6]: exhibited a cytoprotective effect; also recorded: had the best activity

— patent EP4725508A1, “LIGAND-DRUG CONJUGATE HAVING FREE PAYLOAD RECOVERY UNIT” (RemeGen Co., Ltd., priority 2024, dated 2025)
